Columns and labels:
Assay in all cases: relative viability (nuclei count vs DMSO), 5 days (fraction); higher = more cells survive
[1] = compound: CC1=C(C=C(C=C1)NC(=O)C2=CC(=CC=C2)C(C)(C)C#N)NC3=CC4=C(C=C3)N=CN(C4=O)C [AZ628] + C[C@@H](Oc1cc(-c2cnn(C3CCNCC3)c2)cnc1N)c1c(Cl)ccc(F)c1Cl [Crizotinib] (partner 1 µM)
Method in brief: (§1)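 Relative viability equals treated-well nuclei counts divided by vehicle-well nuclei counts. Counts came from 4× images of lung cancer cell lines grown in 1536-well plates for 5 days after pin-tool dosing on the day after seeding. Dosing used one drug alone or a fixed anchor-drug dose plus five library-drug doses (not always all listed) in √10 steps, and values are medians of duplicate plates.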

[2] = compound: CC1=C(C=C(C=C1)NC(=O)C2=CC(=CC=C2)C(C)(C)C#N)NC3=CC4=C(C=C3)N=CN(C4=O)C [AZ628] + Nc1ncn([C@H]2C[C@H](O)[C@@H](CO)O2)c(=O)n1 [Decitabine] (partner 2 µM)
Method in brief: as §1

[3] = compound: CC1=C(C=C(C=C1)NC(=O)C2=CC(=CC=C2)C(C)(C)C#N)NC3=CC4=C(C=C3)N=CN(C4=O)C [AZ628] + O=C(CCCCCCC(=O)Nc1ccccc1)NO [Vorinostat] (partner 1 µM)
Method in brief: as §1

[4] = compound: C[As](C)SC[C@H](NC(=O)CC[C@H](N)C(=O)O)C(=O)NCC(=O)O [Darinaparsin] + O=C(CCCCCCC(=O)Nc1ccccc1)NO [Vorinostat] (partner 1 µM)
Method in brief: as §1

| Cell Line | relative viability ([1]; first compound 0.08 µM) | relative viability ([1]; first compound 0.253 µM) | relative viability ([1]; first compound 0.8 µM) | relative viability ([1]; first compound 2.53 µM) | relative viability ([1]; first compound 8 µM) | relative viability ([2]; first compound 0.08 µM) | relative viability ([2]; first compound 0.253 µM) | relative viability ([2]; first compound 0.8 µM) | relative viability ([2]; first compound 2.53 µM) | relative viability ([2]; first compound 8 µM) | relative viability ([3]; first compound 0.08 µM) | relative viability ([3]; first compound 0.253 µM) | relative viability ([3]; first compound 0.8 µM) | relative viability ([3]; first compound 2.53 µM) | relative viability ([3]; first compound 8 µM) | relative viability ([4]; first compound 0.08 µM) | relative viability ([4]; first compound 0.8 µM) | relative viability ([4]; first compound 2.53 µM) | relative viability ([4]; first compound 8 µM) |
| --- | --- | --- | --- | --- | --- | --- | --- | --- | --- | --- | --- | --- | --- | --- | --- | --- | --- | --- | --- |
| EMC-BAC-2 | 0.809 | 0.759 | 0.76 | 0.795 | 0.874 | 0.944 | 0.84 | 0.874 | 0.749 | 0.465 | 0.878 | 0.57 | 0.642 | 0.562 | 0.449 | 0.554 | 0.417 | 0.546 | 0.42 |
| A-427 | 0.641 | 0.74 | 0.69 | 0.665 | 0.251 | 0.58 | 0.582 | 0.494 | 0.52 | 0.451 | 1.02 | 0.811 | 0.82 | 0.787 | 0.437 | 0.898 | 0.811 | 0.951 | 0.893 |
| NCI-H727 | 0.706 | 0.523 | 0.452 | 0.368 | 0.258 | 0.918 |  |  | 0.644 | 0.345 | 1.25 |  |  | 0.891 | 0.352 | 1.24 | 1.14 | 1.16 | 1.36 |
| NCI-H2170 | 1.23 | 1.19 | 1.12 | 1.15 | 1.21 | 0.448 | 0.483 | 0.446 | 0.439 | 0.456 | 0.804 | 0.833 | 0.786 | 0.837 | 0.905 | 0.967 | 0.694 | 0.676 | 1.17 |
| COR-L23 | 0.619 | 0.736 | 0.666 | 0.59 | 0.365 | 0.471 | 0.43 | 0.349 | 0.453 | 0.27 | 0.528 | 0.426 | 0.491 | 0.473 | 0.321 | 0.453 | 0.523 | 0.425 | 0.433 |
| PC-3 [JPC-3] | 0.941 | 1.04 | 1 | 1.06 | 0.922 | 0.86 | 0.813 | 0.924 | 0.827 | 0.642 | 1.15 | 0.7 | 0.891 | 0.793 | 0.709 | 0.903 | 0.739 | 0.945 | 0.872 |
| NCI-H520 | 0.707 | 0.788 | 0.601 | 0.833 | 0.576 | 0.563 | 0.488 | 0.547 | 0.472 | 0.382 | 0.684 | 0.628 | 0.702 | 0.81 | 0.716 | 0.737 | 0.723 | 0.735 | 0.785 |
| HCC-827 | 0.883 | 0.946 | 0.928 | 0.921 | 0.865 | 0.33 | 0.32 | 0.348 | 0.402 | 0.313 | 0.963 | 0.795 | 0.906 | 0.921 | 0.552 | 0.874 | 0.818 | 0.775 | 0.963 |
| NCI-H1666 | 1.09 | 0.901 | 0.819 | 0.761 | 0.632 | 0.744 | 0.691 | 0.625 | 0.62 | 0.657 | 1.07 | 0.953 | 0.995 | 0.764 | 0.916 | 1.2 | 0.899 | 1.18 | 1.08 |
| NCI-H322M | 0.819 | 1.04 | 1.01 | 0.795 | 0.856 | 0.659 | 0.716 | 0.696 | 0.681 | 0.688 | 1.03 | 0.856 | 0.989 | 0.937 | 0.816 | 1.08 | 0.865 | 0.768 | 0.899 |
| NCI-H838 | 0.84 | 0.842 | 0.719 | 0.747 | 0.655 | 0.49 | 0.504 | 0.476 | 0.455 | 0.479 | 0.753 | 0.72 | 0.677 | 0.722 | 0.718 | 0.704 | 0.738 | 0.728 | 0.76 |
| NCI-H596 | 0.903 | 1.18 | 1.08 | 1.04 | 1.16 | 1.02 | 1.12 | 1.13 | 1.1 | 0.933 | 0.559 | 0.594 | 0.69 | 0.686 | 0.682 | 0.543 | 0.632 | 0.576 | 0.543 |
| NCI-H647 | 1.24 | 1.03 | 1.04 | 0.984 | 0.793 | 0.383 | 0.452 | 0.329 | 0.383 | 0.332 | 0.54 | 0.845 | 0.524 | 0.833 | 0.488 | 0.608 | 0.751 | 0.539 | 0.572 |
| NCI-H441 | 0.809 | 0.569 | 0.541 | 0.694 | 0.78 | 0.257 | 0.313 | 0.245 | 0.212 | 0.226 | 0.782 | 0.749 | 0.67 | 0.673 | 0.68 | 1.15 | 0.751 | 0.847 | 0.884 |
